# PubChem BioAssay (NCI)
#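 Following 48 hours of exposure in 96-well plates, responses at five concentrations were used to interpolate endpoints linearly. GI50 marks 50% less growth. At the TGI there is no net growth.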
# Key:
# Test in all cases: growth of human tumour cells (NCI), 48 h
# UO-31 renal = system: UO-31 renal
# SN12C renal = system: SN12C renal
# UACC-257 melanoma = system: UACC-257 melanoma
# SNB-19 CNS = system: SNB-19 CNS
# A549 NSCLC = system: A549 NSCLC
# 786-0 renal = system: 786-0 renal
# HCT-116 colon = system: HCT-116 colon
# TK-10 renal = system: TK-10 renal
# SF-539 CNS = system: SF-539 CNS
# U251 CNS = system: U251 CNS
# T-47D breast = system: T-47D breast
Compound,TGI (UO-31 renal),TGI (SN12C renal),TGI (UACC-257 melanoma),TGI (SNB-19 CNS),TGI (A549 NSCLC),TGI (786-0 renal),TGI (HCT-116 colon),TGI (TK-10 renal),TGI (SF-539 CNS),TGI (U251 CNS),GI50 (UO-31 renal),GI50 (SNB-19 CNS),GI50 (HCT-116 colon),GI50 (SF-539 CNS),GI50 (T-47D breast),TGI (T-47D breast),GI50 (UACC-257 melanoma),GI50 (A549 NSCLC),GI50 (U251 CNS)
Clc1ccccc1C(SCc1ccccc1)SCc1ccccc1,> 100 µM,> 100 µM,> 100 µM,> 100 µM,> 100 µM,> 100 µM,> 100 µM,> 100 µM,> 100 µM,> 100 µM,,,,,,,,,
O=C1c2ccccc2-c2c1c1ccccc1c(=O)n2CCNCCNCCNCCn1c2c(c3ccccc3c1=O)C(=O)c1ccccc1-2,2.64 µM,,,> 100 µM,,,> 100 µM,,1.58 µM,,1.12 µM,2.35 µM,0.111 µM,0.273 µM,2.95 µM,> 100 µM,,,
COc1ccc(C2CC(c3c(O)ccc4ccccc34)=NN2C(C)=O)cc1OC (stereo unspecified),83.3 µM,> 100 µM,> 100 µM,,> 100 µM,> 100 µM,28.6 µM,> 100 µM,48.9 µM,> 100 µM,,,,,,> 100 µM,,,
CCOC(=O)c1cn2c(n1)sc1cccc(C)c12,> 100 µM,,> 100 µM,> 100 µM,> 100 µM,> 100 µM,> 100 µM,> 100 µM,> 100 µM,,,,,,,,,,
O=C1CCCSC(=O)N1Cc1ccccc1,,> 100 µM,> 100 µM,> 100 µM,> 100 µM,> 100 µM,> 100 µM,> 100 µM,> 100 µM,,,,,,,> 100 µM,,,
N#CCCC1C(C#N)C2(Cl)CC1(Cl)C(Cl)=C2Cl (stereo unspecified),> 10 µM,> 10 µM,,> 10 µM,> 10 µM,,> 10 µM,> 10 µM,> 10 µM,> 10 µM,,,,,,> 10 µM,,,
O=C(N/N=C(/COc1ccc(Cl)cc1)N=Cc1ccncc1)c1ccncc1,,> 100 µM,> 100 µM,> 100 µM,> 100 µM,> 100 µM,> 100 µM,> 100 µM,> 100 µM,> 100 µM,,,,,,> 100 µM,,,
Cc1ccc(C(=O)O)cc1S(=O)(=O)Nn1cnc2ccc(S(=O)(=O)Nc3ccccc3C(=O)O)cc2c1=O,> 100 µM,> 100 µM,> 100 µM,> 100 µM,> 100 µM,> 100 µM,> 100 µM,> 100 µM,> 100 µM,> 100 µM,,,,,,,,,
C[C@]12CCC(O)CC1=CC[C@@H]1[C@@H]2CC[C@]2(C)C(=O)[C@H](n3ccnc3)C[C@@H]12 (stereo partly specified),> 100 µM,> 100 µM,> 100 µM,> 100 µM,> 100 µM,> 100 µM,> 100 µM,> 100 µM,> 100 µM,> 100 µM,,,,,,,,,
COC(=O)c1cc(=O)nc2sc3cccc(C)c3n12,,> 100 µM,> 100 µM,> 100 µM,> 100 µM,47.3 µM,> 100 µM,> 100 µM,> 100 µM,> 100 µM,,,,,,> 100 µM,,,
CC(=O)O[C@@H]1[C@H](C(C)C)[C@@H](OC(C)=O)C/C(C)=C/CC[C@]2(C)O[C@@H]12,> 100 µM,> 100 µM,> 100 µM,> 100 µM,> 100 µM,> 100 µM,> 100 µM,> 100 µM,,> 100 µM,,,,,,> 100 µM,,,
CC(C)CCS(=O)(=O)OCCCCOS(=O)(=O)CCC(C)C,> 100 µM,> 100 µM,> 100 µM,> 100 µM,> 100 µM,> 100 µM,> 100 µM,> 100 µM,> 100 µM,> 100 µM,,,,,,,,,
CC1CCC(n2c3cnccc3c3cnc(Nc4ccc5c(n4)CCN(C(=O)CO)C5)nc32)CC1 (stereo unspecified),> 100 µM,,> 100 µM,> 100 µM,> 100 µM,,> 100 µM,,,> 100 µM,0.263 µM,0.845 µM,0.462 µM,,,,> 100 µM,0.882 µM,0.478 µM
c1ccc(-c2nc(-c3ccccc3SSc3ccccc3-c3nc(-c4ccccc4)nn3-c3ccccc3)n(-c3ccccc3)n2)cc1,> 100 µM,> 100 µM,,> 100 µM,> 100 µM,> 100 µM,> 100 µM,> 100 µM,> 100 µM,> 100 µM,,,,,,> 100 µM,,,
S=C1Nc2ccccc2SC1c1ccccc1 (stereo unspecified),> 100 µM,> 100 µM,> 100 µM,> 100 µM,> 100 µM,> 100 µM,> 100 µM,> 100 µM,,> 100 µM,,,,,,> 100 µM,,,
ClCCN1CCC2(CC1)SSC1(CCN(CCCl)CC1)S2,> 100 µM,72.8 µM,> 100 µM,> 100 µM,> 100 µM,> 100 µM,> 100 µM,95.5 µM,56.3 µM,> 100 µM,,,,,,,,,
C[C@@H](NC(=O)[C@@H]1C[C@]1(C)COC(=O)c1cc([N+](=O)[O-])cc([N+](=O)[O-])c1)c1cccc2ccccc12,> 100 µM,> 100 µM,> 100 µM,> 100 µM,> 100 µM,> 100 µM,> 100 µM,> 100 µM,,> 100 µM,,,,,,> 100 µM,,,
COC(CCC[N+](C)(C)C)CC[N+](C)(C)C (stereo unspecified),> 100 µM,> 100 µM,> 100 µM,> 100 µM,> 100 µM,> 100 µM,> 100 µM,> 100 µM,> 100 µM,> 100 µM,,,,,,,,,
Cc1cn2c(/C=N/N=C(N)N)c(-c3cccc([N+](=O)[O-])c3)nc2s1,19.6 µM,3.08 µM,4.22 µM,,4.94 µM,7.08 µM,> 100 µM,3.92 µM,4.05 µM,2.95 µM,,,,,,,,,
COc1cc(C(=O)N(C(=S)OCc2ccccn2)c2ccccc2)cc(OC)c1OC,86.5 µM,> 100 µM,> 100 µM,> 100 µM,,> 100 µM,> 100 µM,> 100 µM,81 µM,> 100 µM,,,,,,> 100 µM,,,
C#CCNC(CS)C(=O)O (stereo unspecified),> 100 µM,,> 100 µM,> 100 µM,> 100 µM,> 100 µM,> 100 µM,> 100 µM,,> 100 µM,,,,,,> 100 µM,,,
